# Measurements: US10729738B2, “Hindered disulfide drug conjugates” (priority 2015, dated 2020)
# Experiment: In vitro disulfide cleavage and immolation by incubation with cysteine or glutathione (LC/MS)
# Assay type: physicochemical
# Settings: for Percentage of all products: pH 7.0, 37° C.; for Immolation of thiol intermediate: incubation with cysteine or glutathione
# Method: In a first phase of the experiment, disulfide cleavage and immolation by incubation with cysteine and glutathione—with the thiol concentrations mimic those in plasma and cancer cells—was investigated using unconjugated small molecule model systems with para-nitro-pyridyl disulfide-containing linker drug analogs 1, 2 and 11 below. In particular, cleavage and immolation was evaluated in vitro by incubation at […] with cysteine ([…] or 200 μM) or glutathione (GSH, 4 mM) in 100 mM Tris buffer pH 7.0 containing 5% methanol at 37° C. Aliquots were taken at specified time points and the samples were analyzed by LC/MS on Sciex TripleTOF 5600 on a Hypersil Gold C18 column (100×2.1, […], Thermo Scientific). The column was eluted by a gradient of buffer A (0.1% formic acid in 10 mM ammonium acetate) to buffer B (0.1% formic acid in 10 mM ammonium acetate in 90% acetonitrile), 5% B 0-0.5 min, 5-25% B 0.5-8 min, 25-75% B 8-13 min, and 75-95% B 13-13.5 min, 95% B 13.5-14.5 min, 95-5% B 14.5-15 min at 0.4 mL/min. Under these conditions, para-nitropyridyl thiol was eluted at 5.3 min. All products (compounds 1, 2, 11, 3a, 3b, 4a, 4b, 12a, 12 b, 6, 7, 13 and 8) were separated and characterized by LC/MS/MS in a positive ESI ion mode. All analytes had the protonated molecular MH^+ as the major species with little source fragmentation. Full scan accurate mass peak areas were used to estimate relative abundance of each component and the disappearance of 1, 2, and 11 estimated relative full scan peak areas was consistent with that estimated based on the relative abundance compared to time 0 by MS or UV. The results are reported in Table 15 below and the analytical results are presented in Table 16 below where “Cmpd” refers to compound, “RT” refers to retention time in minutes, and “Calc. Mass” refers to calculated mass. The relative abundance of disulfide cleavage and immolation products over time were evaluated and are disclosed in FIGS. 12A to 12C, 13A to 13C, 14A to 14C and 15A to 15C where the products were monitored by LC/MS from incubations of linker drugs 1, 2, and 11 at pH 7.0 and 37° C. in the presence of: 0.2 mM cysteine (FIGS. 12A, 12B and 12C); 0.03 mM cysteine (FIGS. 13A, 13B and 13C); 4 mM glutathione (FIGS. 14A, 14B and 14C); and 0.03 mM glutathione (FIGS. 15A, 15B and 15C). In FIGS. 12A to 12C, 13A to 13C, 14A to 14C and 15A to 15C, compound reference numbers 1, 2, 3a, 3b, 4a, 4b, 6, 7, 8, 11, 12a, 12b and 13 correspond to the structures below.
compound,measurement,setting,value
"C=C1CC2C=Nc3cc(OCCCCCOc4cc5c(cc4OC)C(=O)N4CC(=C)CC4C=N5)c(OC)cc3C(=O)N2C1 (centres unmarked) [Compound 8, reference compound]",Percentage of all products,"30 μM cysteine, 1 h, listed as 1 to 8, compound 1 to 8 conversion",6.8%
same,Percentage of all products,"30 μM cysteine, 1 h, listed as 2 to 8, compound 2 to 8 conversion",0.1%
same,Percentage of all products,"30 μM cysteine, 1 h, listed as 11 to 8, compound 11 to 8 conversion",3.6%
same,Percentage of all products,"30 μM cysteine, 4 h, listed as 1 to 8, compound 1 to 8 conversion",10.5%
same,Percentage of all products,"30 μM cysteine, 4 h, listed as 2 to 8, compound 2 to 8 conversion",0.1%
same,Percentage of all products,"30 μM cysteine, 4 h, listed as 11 to 8, compound 11 to 8 conversion",8.7%
same,Percentage of all products,"30 μM cysteine, 24 h, listed as 1 to 8, compound 1 to 8 conversion",20.5%
same,Percentage of all products,"30 μM cysteine, 24 h, listed as 2 to 8, compound 2 to 8 conversion",0.5%
same,Percentage of all products,"30 μM cysteine, 24 h, listed as 11 to 8, compound 11 to 8 conversion",27.6%
same,Percentage of all products,"200 μM cysteine, 1 h, listed as 1 to 8, compound 1 to 8 conversion",83.7%
same,Percentage of all products,"200 μM cysteine, 1 h, listed as 2 to 8, compound 2 to 8 conversion",0.1%
same,Percentage of all products,"200 μM cysteine, 1 h, listed as 11 to 8, compound 11 to 8 conversion",68.8%
same,Percentage of all products,"200 μM cysteine, 4 h, listed as 1 to 8, compound 1 to 8 conversion",94.4%
same,Percentage of all products,"200 μM cysteine, 4 h, listed as 2 to 8, compound 2 to 8 conversion",0.3%
same,Percentage of all products,"200 μM cysteine, 4 h, listed as 11 to 8, compound 11 to 8 conversion",83.2%
same,Percentage of all products,"200 μM cysteine, 24 h, listed as 1 to 8, compound 1 to 8 conversion",99.9%
same,Percentage of all products,"200 μM cysteine, 24 h, listed as 2 to 8, compound 2 to 8 conversion",2.5%
same,Percentage of all products,"200 μM cysteine, 24 h, listed as 11 to 8, compound 11 to 8 conversion",97.7%
same,Percentage of all products,"4 mM GSH, 1 h, listed as 1 to 8, compound 1 to 8 conversion",88.0%
same,Percentage of all products,"4 mM GSH, 1 h, listed as 2 to 8, compound 2 to 8 conversion",0.2%
same,Percentage of all products,"4 mM GSH, 1 h, listed as 11 to 8, compound 11 to 8 conversion",86.7%
same,Percentage of all products,"4 mM GSH, 4 h, listed as 1 to 8, compound 1 to 8 conversion",98.5%
same,Percentage of all products,"4 mM GSH, 4 h, listed as 2 to 8, compound 2 to 8 conversion",0.4%
same,Percentage of all products,"4 mM GSH, 4 h, listed as 11 to 8, compound 11 to 8 conversion",94.9%
same,Percentage of all products,"4 mM GSH, 24 h, listed as 1 to 8, compound 1 to 8 conversion",99.9%
same,Percentage of all products,"4 mM GSH, 24 h, listed as 2 to 8, compound 2 to 8 conversion",2.3%
same,Percentage of all products,"4 mM GSH, 24 h, listed as 11 to 8, compound 11 to 8 conversion",99.3%
C=C1CC2C=Nc3cc(OCCCCCOc4cc5c(cc4OC)C(=O)N4CC(=C)CC4C(O)N5C(=O)OCC(C)SSc4ccc([N+](=O)[O-])cn4)c(OC)cc3C(=O)N2C1 (centres unmarked) [Compound 1],Percentage of all products,"30 μM cysteine, 1 h",10.6%
same,Percentage of all products,"30 μM cysteine, 4 h",7.9%
same,Percentage of all products,"30 μM cysteine, 24 h",4.5%
same,Percentage of all products,"200 μM cysteine, 1 h",2.8%
same,Percentage of all products,"200 μM cysteine, 4 h",1.0%
same,Percentage of all products,"200 μM cysteine, 24 h",0%
same,Percentage of all products,"4 mM GSH, 1 h",9.1%
same,Percentage of all products,"4 mM GSH, 4 h",0.9%
same,Percentage of all products,"4 mM GSH, 24 h",0.1%
C=C1C[C@H]2C=Nc3cc(OCCCCCOc4cc5c(cc4OC)C(=O)N4CC(=C)C[C@H]4C(O)N5C(=O)OCC4(SSC[C@H](N)C(=O)O)CC4)c(OC)cc3C(=O)N2C1 (some centres unmarked) [Compound 4a],Percentage of all products,"30 μM cysteine, 1 h",73.7%
same,Percentage of all products,"30 μM cysteine, 4 h",71.1%
same,Percentage of all products,"30 μM cysteine, 24 h",75.9%
same,Percentage of all products,"200 μM cysteine, 1 h",39.1%
same,Percentage of all products,"200 μM cysteine, 4 h",15.2%
same,Percentage of all products,"200 μM cysteine, 24 h",3.2%
C=C1C[C@H]2C=Nc3cc(OCCCCCOc4cc5c(cc4OC)C(=O)N4CC(=C)C[C@H]4C(O)N5C(=O)OCC4(SSC[C@H](NC(=O)CC[C@H](N)C(=O)O)C(=O)NCC(=O)O)CCC4)c(OC)cc3C(=O)N2C1 (some centres unmarked) [Compound 12b],Percentage of all products,"4 mM GSH, 1 h",1.6%
same,Percentage of all products,"4 mM GSH, 4 h",0.2%
same,Percentage of all products,"4 mM GSH, 24 h",0%
C=C1C[C@H]2C=Nc3cc(OCCCCCOc4cc5c(cc4OC)C(=O)N4CC(=C)C[C@H]4C(O)N5C(=O)OCC4(SSC[C@H](NC(=O)CC[C@H](N)C(=O)O)C(=O)NCC(=O)O)CC4)c(OC)cc3C(=O)N2C1 (some centres unmarked) [Compound 4b],Percentage of all products,"4 mM GSH, 1 h",1.1%
same,Percentage of all products,"4 mM GSH, 4 h",0.4%
same,Percentage of all products,"4 mM GSH, 24 h",1.0%
C=C1CC2C=Nc3cc(OCCCCCOc4cc5c(cc4OC)C(=O)N4CC(=C)CC4C(O)N5C(=O)OCC(C)S)c(OC)cc3C(=O)N2C1 (centres unmarked) [Compound 6],Percentage of all products,"30 μM cysteine, 1 h",2.5%
same,Percentage of all products,"30 μM cysteine, 4 h",1.7%
same,Percentage of all products,"30 μM cysteine, 24 h",0.5%
same,Percentage of all products,"200 μM cysteine, 1 h",7.8%
same,Percentage of all products,"200 μM cysteine, 4 h",2.8%
same,Percentage of all products,"200 μM cysteine, 24 h",0.1%
same,Percentage of all products,"4 mM GSH, 1 h",2.6%
same,Percentage of all products,"4 mM GSH, 4 h",0%
same,Percentage of all products,"4 mM GSH, 24 h",0%
same,Immolation of thiol intermediate,,immolated quickly
C=C1C[C@H]2C=Nc3cc(OCCCCCOc4cc5c(cc4OC)C(=O)N4CC(=C)C[C@H]4C(O)N5C(=O)OCC4(SSC[C@H](N)C(=O)O)CCC4)c(OC)cc3C(=O)N2C1 (some centres unmarked) [Compound 12a],Percentage of all products,"30 μM cysteine, 1 h",73.5%
same,Percentage of all products,"30 μM cysteine, 4 h",74.8%
same,Percentage of all products,"30 μM cysteine, 24 h",66.7%
same,Percentage of all products,"200 μM cysteine, 1 h",21.5%
same,Percentage of all products,"200 μM cysteine, 4 h",11.6%
same,Percentage of all products,"200 μM cysteine, 24 h",0.8%
C=C1CC2C=Nc3cc(OCCCCCOc4cc5c(cc4OC)C(=O)N4CC(=C)CC4C(O)N5C(=O)OCC(C)SSCC(NC(=O)CCC(N)C(=O)O)C(=O)NCC(=O)O)c(OC)cc3C(=O)N2C1 (centres unmarked) [Compound 3b],Percentage of all products,"4 mM GSH, 1 h",0.3%
same,Percentage of all products,"4 mM GSH, 4 h",0%
same,Percentage of all products,"4 mM GSH, 24 h",0%
C=C1C[C@H]2C=Nc3cc(OCCCCCOc4cc5c(cc4OC)C(=O)N4CC(=C)C[C@H]4C(O)N5C(=O)OCC4(S)CCC4)c(OC)cc3C(=O)N2C1 (some centres unmarked) [Compound 13],Percentage of all products,"30 μM cysteine, 1 h",1.3%
same,Percentage of all products,"30 μM cysteine, 4 h",1.1%
same,Percentage of all products,"30 μM cysteine, 24 h",0.1%
same,Percentage of all products,"200 μM cysteine, 1 h",3.2%
same,Percentage of all products,"200 μM cysteine, 4 h",1.6%
same,Percentage of all products,"200 μM cysteine, 24 h",0%
same,Percentage of all products,"4 mM GSH, 1 h",2.3%
same,Percentage of all products,"4 mM GSH, 4 h",0%
same,Percentage of all products,"4 mM GSH, 24 h",0%
same,Immolation of thiol intermediate,,efficient immolation
C=C1CC2C=Nc3cc(OCCCCCOc4cc5c(cc4OC)C(=O)N4CC(=C)CC4C(O)N5C(=O)OCC(C)SSCC(N)C(=O)O)c(OC)cc3C(=O)N2C1 (centres unmarked) [Compound 3a],Percentage of all products,"30 μM cysteine, 1 h",80.1%
same,Percentage of all products,"30 μM cysteine, 4 h",79.9%
same,Percentage of all products,"30 μM cysteine, 24 h",75.0%
same,Percentage of all products,"200 μM cysteine, 1 h",5.6%
same,Percentage of all products,"200 μM cysteine, 4 h",1.9%
same,Percentage of all products,"200 μM cysteine, 24 h",0%
